Patent US20250042887A1, “GLYCOGEN SYNTHASE KINASE-3 (GSK3) INHIBITOR COMPOUNDS FOR USE AS ANTIVIRAL AGENTS” (priority 2021, published 2025)
“Also recorded” adds a separate entry of the source.

System: SARS-CoV-2 B.1.617.2 and BA.1 variants
Type: cell-based
Settings: B.1.617.2 (Delta) and BA.1 (Omicron)

CSc1ccc(-n2cnc3ccc(-c4nnc(CCc5cccc(C#N)c5)o4)cc32)cc1 [Compound P-0717632]
effect on SARS-CoV-2 variants: reduced intracellular viral titres; also recorded: inhibited
